Values of other authors as cited in patent US20030157171A1 (priority 2003, published 2003).

SMILES | water solubility (in words) | water solubility at pH values below 7.0 (pH below 7.0)
COc1ccc2c(c1)c(CC(=O)O)c(C)n2C(=O)c1ccc(Cl)cc1 [Indomethacin] | poorly water soluble | –
C[C@H](CCC(=O)O)[C@H]1CC[C@H]2[C@@H]3[C@@H](O)C[C@@H]4C[C@H](O)CC[C@]4(C)[C@H]3CC[C@]12C [Ursodeoxycholic Acid] | – | low
